From US8835631B2, “Therapeutic agent for cerebral infarction” (Mitsubishi Tanabe Pharma Corporation, priority 2007, dated 2014) come the findings set out here.

A short description of data set [1]: Evaluation of bioavailability in rat. The class given is in vivo, male SD(IGS) rats. As for the experimental part: Test compound A, test compound B and test compound C were each dissolved in 0.5% aqueous HPMC (hydroxypropyl methylcellulose) solution in the case of oral administration, or in saline in the case of intravenous administration, and they were orally or intravenously administered to male SD(IGS) rats (Charles River Laboratories Japan) by 3 mg/kg. The concentration of unchanged drug in the plasma of each rat was measured, and bioavailability (F(%)) was calculated (F (%)=(AUC0-∞,p.o./AUC0-∞,i.v.,mean)×(Dosei.v./Dosep.o.)×100). The test compound was administered by gavage using an oral gavage needle (p.o.), or administered in the tail vein (i.v.). The blood samples were collected at 15 and 30 min, 1, 2, 4, 6, 8 and 24 hr after administration in the case of oral administration, and 5 and 30 min, 1, 2, 4, 6, 8 and 24 hr after administration in the case of intravenous administration.
The results are shown in Tables 4 (test compound A), 5 (test compound B) and 6 (test compound C). The Cmax values for i.v. in Tables 4, 5 and 6 show plasma concentration at 5 min after administration.

The subject of data set [2] is TNF-α. The data set is described as follows: Intracerebral TNF-α production in rat middle cerebral artery occlusion-reperfusion model. The class given is in vivo, male Wistar rats. The settings on record: 10 mg/kg orally 30 min after occlusion; brain isolated 12 hr after occlusion; ELISA; FIG. 1. The procedure:
The middle cerebral artery of male Wistar rats (Japan Laboratory animals Inc.) was obstructed with suture (silicon-coated nylon thread), and test compound A (10 mg/kg) dissolved in saline was intravenously administered in 30 min after occlusion, and middle cerebral artery was reperfused in 60 min after administration. In only the rats used for TNF-α measurement, test compound A was administered orally. The brain was isolated at 12 hr after the occlusion (see Koizumi, J. et al., Jpn. J. Stroke, 8, 1-8, 1986). The brain tissue was homogenized, the centrifuged supernatant was collected and cytokine and chemokine were measured by ELISA. Intracerebral TNF-α, IL-1β and IL-6 were measured using an Immunoassay Kit (BIOSOURCE) according to the manufactures' protocol. MCP-1 was measured using an MCP-1 Instant ELISA (Bener MedSystems) according to the manufactures' protocol.

The subject of data set [3] is TNF-α. Put plainly: TNF-α production in LPS-administered mouse. The class given is in vivo, male BALB/c mouse. As for the experimental part: LPS (lipopolysaccharide, derived from E. coli 0111:B4, Sigma, 500 μg/kg) was intraperitoneally administered to male BALB/c mouse (Charles River Laboratories Japan). After 90 min after LPS administration, the blood was taken under anesthesia, and centrifuged to collect plasma. TNF-α was measured using an Immunoassay Kit (R&D Systems) and IL-10, MCP-1 and IL-6 were measured using an Immunoassay Kit (BIOSOURCE). Test compound A, the compound synthesized in Example 3 (test compound B) and the compound synthesized in Example 7 (test compound C) were dissolved in saline, and the mixture was orally administered at 10 mg/kg 30 min before LPS administration. As shown in the Tables, the effect of each test compound on respective […] cytokines was calculated as the ratio of each cytokine concentration in the blood of the group administered with each test compound to each cytokine concentration in the blood of the group free of administration of each test compound.

Setting [4] is: 3 mg/kg i.v., plasma, Mean + SD.
The mark [5] stands for this setting: 3 mg/kg p.o., plasma, Mean + SD.

Marks after values point to notes of the source that are not given here.

Usually Cmax stands for the peak of the concentration-time curve. For the compound `CC(=O)NC1(c2ccc(CN3CCN(c4ncccn4)CC3)cc2)CC1.Cl` [test compound A, N-(1-(4-((4-(pyrimidin-2-yl)piperazin-1-yl)methyl)phenyl)cyclopropyl)acetamide•hydrochloride], in data set [1] (setting [4]), the AUC0-24 h worked out at 3850 ± 78.4 ngh/mL; the “AUC0-∞” value stood at 3841.3 ± 77.4 ngh/mL; the “Cmax (C5 min, plasma concentration at 5 min after administration)” value was 2219.9 ± 103.8^2) ng/mL. In addition, the “F (bioavailability)” value in data set [1] (3 mg/kg p.o. vs 3 mg/kg i.v., F = (AUC0-∞,p.o./AUC0-∞,i.v.,mean) × (Dosei.v./Dosep.o.) × 100) stood at 104.3%. For the same compound, in data set [1] (setting [5]), the AUC0-24 h was determined as 4032.9 ± 501.8 ngh/mL, the “AUC0-∞” value worked out at 4008.2 ± 491.5 ngh/mL and the Cmax is reported as 1459.7 ng/mL. Moreover, the “intracerebral TNF-α concentration increased by transient cerebral ischemia” value in the data set on TNF-α [2] is on record as “suppressed”. Moreover, the “TNF-α production in LPS model mouse (in words)” value in the data set on TNF-α [3] (10 mg/kg orally 30 min before LPS) is recorded as “suppressed”. Besides, the “TNF-α production (%)” value with TNF-α [3] (Table 1, 10 mg/kg orally 30 min before LPS 500 μg/kg i.p., plasma 90 min after LPS, ratio to group without test compound) is listed as 43.5%.
